Among the data in patent US20260053861A1, “CELL COMPOSITIONS AND METHODS OF USING THE SAME” (THE REGENTS OF THE UNIVERSITY OF CALIFORNIA, priority 2022, published 2026) are z.score.t values, retold here.

Where a name gives a salt, the structure may show the parent alone.

The first assay deals with hPSC-SCs.
Conditions: not given
Take `CC(=O)O[C@H]1C[C@H](O[C@H]2[C@@H](O)C[C@H](O[C@H]3[C@@H](O)C[C@H](O[C@H]4CC[C@@]5(C)[C@H](CC[C@@H]6[C@@H]5C[C@@H](O)[C@]5(C)[C@@H](C7=CC(=O)OC7)CC[C@]65O)C4)O[C@@H]3C)O[C@@H]2C)O[C@H](C)[C@H]1O[C@@H]1O[C@H](CO)[C@@H](O)[C@H](O)[C@H]1O` [Lanatoside C]: the z.score.t was −2.334. Compound `CC1=CC(=O)C2=C(C)CC[C@@H]3[C@H](OC(=O)[C@H]3C)[C@@H]12` [Leucomisine] returned a z.score.t of 1.214. `C[C@H](N)[C@H](O)c1ccc(O)c(O)c1` [Levonordefrin]: the z.score.t stood at 0.1916.

Compound `CCC(=O)O[C@@](Cc1ccccc1)(c1ccccc1)[C@@H](C)CN(C)C` [Levopropoxyphene napsylate] yielded a z.score.t of −0.5351. Still for that read-out and setting: under `CCN(CC)CC(=O)Nc1c(C)cccc1C.Cl` [LidocaÂ<ne hydrochloride] stands −0.01953; under `CN1[C@@H](C[C@@H](O)c2ccccc2)CCC[C@H]1C[C@H](O)c1ccccc1.Cl` [Lobelanidine hydrochloride], −0.3319.

`CN1[C@@H](CC(=O)c2ccccc2)CCC[C@H]1C[C@H](O)c1ccccc1.Cl` [Lobeline alpha (−) hydrochoride]: the z.score.t is −0.2904.

Consider `CN(C)C(=O)C(CCN1CCC(O)(c2ccc(Cl)cc2)CC1)(c1ccccc1)c1ccccc1` [Loperamide hydrochloride], for which the z.score.t is given as −1.329. Consider `COC1=C[C@@H]2C3=C([C@@H]2C1=O)[C@@H](NC(C)=O)CCc1cc(OC)c(OC)c(OC)c13` [Lumicolchicine gamma], for which the z.score.t came to 1.528. `CN1C[C@H](CO)C=C2c3cccc4[nH]cc(c34)C[C@H]21` [Lysergol] came in with a z.score.t of 0.1979. `CN(C)CCOC(=O)COc1ccc(Cl)cc1` [Meclofenoxate hydrochloride] yielded a z.score.t of −2.264. Compound `CCC1(c2cccc(O)c2)CCCCN(C)C1` (centres unmarked) [Meptazinol hydrochloride] came in with a z.score.t of 0.01078. Still for that read-out and setting: under `COC(=O)Nc1nc2ccc(SC(C)C)cc2[nH]1` [Methiazole] stands −1.263.

Still in this assay, the particulars now being: HTS viability of hPSC-SCs in the presence of 30 mM glucose; Prestwick library; Table S4.
Regarding `CC(CCc1ccccc1)NCC(O)c1ccc(O)c(C(N)=O)c1` (centres unmarked) [Labetalol hydrochloride], the z.score.t stood at 0.7665. As to `O=C(O)[C@H](O)[C@@H](O)[C@H](O[C@@H]1O[C@H](CO)[C@H](O)[C@H](O)[C@H]1O)[C@H](O)CO` [Lactobionic acid], the z.score.t came out at 1.942. Still for that read-out and setting: under `Cc1c(OCC(F)(F)F)ccnc1C[S+]([O-])c1nc2ccccc2[nH]1` (centres unmarked) [Lansoprazole] stands 1.808; under `CC[C@@H](C(=O)[C@@H](C)[C@@H](O)[C@H](C)CCc1ccc(C)c(O)c1C(=O)O)[C@H]1O[C@](CC)([C@H]2CC[C@](O)(CC)[C@H](C)O2)C[C@@H]1C` [Lasalocid sodium salt], −2.368. Take `Cc1oncc1C(=O)Nc1ccc(C(F)(F)F)cc1` [Leflunomide]: the z.score.t stood at 0.9178. As for `N#Cc1ccc(C(c2ccc(C#N)cc2)n2cncn2)cc1` [Letrozole], the z.score.t was −0.4953.

`c1ccc([C@H]2CN3CCSC3=N2)cc1` [Levamisole hydrochloride]: the z.score.t is 0.4064.

`C[C@@H]1CN([C@H]2CC[C@](C#N)(c3ccc(F)cc3)CC2)CC[C@]1(C(=O)O)c1ccccc1` [Levocabastine hydrochloride]: the z.score.t is given as −0.6516. On the same count and under the same terms, under `N[C@@H](Cc1ccc(O)c(O)c1)C(=O)O` [Levodopa] stands −1.365; under `Cc1cccc(C)c1NC(=O)CN1CCN(CCCC(c2ccc(F)cc2)c2ccc(F)cc2)CC1` [Lidoflazine], −1.03; under `CCC[C@@H]1C[C@@H](C(=O)N[C@@H]([C@H]2O[C@H](SC)[C@H](O)[C@@H](O)[C@H]2O)[C@@H](C)O)N(C)C1` [Lincomycin hydrochloride], 0.1446. For `N[C@@H](Cc1cc(I)c(Oc2ccc(O)c(I)c2)c(I)c1)C(=O)O` [Liothyronine], the z.score.t is recorded as −1.539. Same read-out and setting: with `NCCCC[C@H](N[C@@H](CCc1ccccc1)C(=O)O)C(=O)N1CCC[C@H]1C(=O)O` [Lisinopril] the figure was 0.08508. Regarding `C[C@H](CCC(=O)O)[C@H]1CC[C@H]2[C@@H]3CC[C@@H]4C[C@H](O)CC[C@]4(C)[C@H]3CC[C@]12C` [Lithocholic acid], the z.score.t is −0.7945.

On to `CCn1cc(C(=O)O)c(=O)c2cc(F)c(N3CCNC(C)C3)c(F)c21` (centres unmarked) [Lomefloxacin hydrochloride], for which the z.score.t is listed as −0.9109. For `CCCCCN(CCCCC)C(=O)C(CCC(=O)O)NC(=O)c1ccc(Cl)c(Cl)c1` (centres unmarked) [Lorglumide sodium salt], the z.score.t is given as 1.824.

`CC[C@H](C)C(=O)O[C@H]1C[C@@H](C)C=C2C=C[C@H](C)[C@H](CC[C@@H]3C[C@@H](O)CC(=O)O3)[C@H]21` [Lovastatin]: the z.score.t was −0.865.

As to `CN1CCN(C2=Nc3ccccc3Oc3ccc(Cl)cc32)CC1` [Loxapine succinate], the z.score.t is −0.2278. With `O=c1cc(-c2ccc(O)c(O)c2)oc2cc(O)cc(O)c12` [Luteolin], the z.score.t is on record as −0.7945. As to `CN(C)[C@@H]1C(O)=C(C(=O)NCNCCCC[C@H](N)C(=O)O)C(=O)[C@@]2(O)C(O)=C3C(=O)c4c(O)cccc4[C@@](C)(O)[C@H]3C[C@@H]12` [Lymecycline], the z.score.t is reported as −0.5745.

Consider `C#C[C@]1(O)CC[C@H]2[C@@H]3CCC4=CCCC[C@@H]4[C@H]3CC[C@@]21C` [Lynestrenol], for which the z.score.t is recorded as −1.847. As for `NCc1ccc(S(N)(=O)=O)cc1` [Mafenide hydrochloride], the z.score.t was −0.4019. Same read-out and setting: under `CNCCCC12CCC(c3ccccc31)c1ccccc12` [Maprotiline hydrochloride] stands −0.865; under `COC(=O)Nc1nc2ccc(C(=O)c3ccccc3)cc2[nH]1` [Mebendazole], −1.584. With `CCN(CCCCOC(=O)c1ccc(OC)c(OC)c1)C(C)Cc1ccc(OC)cc1` (centres unmarked) [Mebeverine hydrochloride], the z.score.t is listed as −0.3301. On to `CN1CCc2c(c3ccccc3n2Cc2ccccc2)C1.O=S(=O)(O)c1cccc2c(S(=O)(=O)O)cccc12` [Mebhydroline 1,5-naphtalenedisulfonate], for which the z.score.t was found to be 0.7312.

As for `CNC1(C)C2CCC(C2)C1(C)C` (centres unmarked) [Mecamylamine hydrochloride], the z.score.t is given as 0.3097. In the case of `C=C1c2c(Cl)ccc(O)c2C(=O)C2=C(O)[C@]3(O)C(=O)C(C(N)=O)=C(O)[C@@H](N(C)C)[C@@H]3[C@@H](O)[C@H]12.O=C(O)c1cc(S(=O)(=O)O)ccc1O` [Meclocycline sulfosalicylate], the z.score.t came to 1.049. In the case of `Cc1cccc(CN2CCN(C(c3ccccc3)c3ccc(Cl)cc3)CC2)c1` (centres unmarked) [Meclozine dihydrochloride], the z.score.t is −1.823. Same read-out and setting: under `CC(=O)[C@H]1CC[C@H]2[C@@H]3C[C@H](C)C4=CC(=O)CC[C@]4(C)[C@H]3[C@@H](O)C[C@]12C` [Medrysone] stands 0.1244; under `Cc1cccc(Nc2ccccc2C(=O)O)c1C` [Mefenamic acid], 1.751; under `CCN(CC)CCNC(=O)COc1ccc(OC)cc1` [Mefexamide hydrochloride], 0.189. Consider `OC(c1cc(C(F)(F)F)nc2c(C(F)(F)F)cccc12)C1CCCCN1` (centres unmarked) [Mefloquine hydrochloride], for which the z.score.t is reported as −1.637.

Turning to `CNC[C@H](O)[C@@H](O)[C@H](O)[C@H](O)CO` [Meglumine], the z.score.t is listed as −0.9741. The same measure, in the same setting: with `COc1ccc2[nH]cc(CCNC(C)=O)c2c1` [Melatonin] the figure was 0.006455.

As to `Cc1cnc(NC(=O)C2=C(O)c3ccccc3S(=O)(=O)N2C)s1` [Meloxicam], the z.score.t was 1.481. With `CC12CC3CC(C)(C1)CC(N)(C3)C2` [Memantine Hydrochloride], the z.score.t is listed as −0.9598. Still for that read-out and setting: with `CC1=CC(=O)c2ccccc2C1=O` [Menadione] the figure was −1.949; with `C[N+]1(C)CCCC(OC(=O)C(O)(c2ccccc2)c2ccccc2)C1` (centres unmarked) [Mepenzolate bromide], 0.03421.

As for `Cc1ccccc1OCC(O)CO` (centres unmarked) [Mephenesin], the z.score.t is on record as −1.753. For `CCC1(c2ccccc2)NC(=O)N(C)C1=O` (centres unmarked) [Mephenytoin], the z.score.t was −0.9817. Regarding `CCCNC(C)(C)COC(=O)c1ccccc1` [Meprylcaine hydrochloride], the z.score.t was −0.4953. The same measure, in the same setting: with `Nc1ccc(O)c(C(=O)O)c1` [Mesalamine] the figure was −0.5745; with `CN1CCCCC1CCN1c2ccccc2Sc2ccc([S+](C)[O-])cc21` (centres unmarked) [Mesoridazine besylate], 0.2816.

Consider `C=N[C@@H](C(=O)N[C@@H]1C(=O)N2[C@@H]1SC(C)(C)[C@@H]2C(=O)O)c1ccccc1` [Metampicillin sodium salt], for which the z.score.t is −1.069. For `CNCC(O)c1ccc(O)c(OC)c1.Cl` (stereo not drawn) [Metanephrine hydrochloride DL], the z.score.t was found to be 1.259. With `C[C@H](N)[C@H](O)c1cccc(O)c1` [Metaraminol bitartrate], the z.score.t amounted to 1.088. For the compound `CN1C[C@H](CNC(=O)OCc2ccccc2)C[C@@H]2c3cccc4c3c(cn4C)C[C@H]21` [Metergoline], the z.score.t was found to be 1.211. Consider `CN(C)C(=N)N=C(N)N` [Metformin hydrochloride], for which the z.score.t amounted to 0.8639.

Regarding `CC(=O)OC(C)C[N+](C)(C)C` (centres unmarked) [Methacholine chloride], the z.score.t amounted to 1.554.

Turning to `C=C1c2cccc(O)c2C(=O)C2=C(O)[C@]3(O)C(=O)C(C(N)=O)=C(O)[C@@H](N(C)C)[C@@H]3[C@@H](O)[C@H]12` [Methacycline hydrochloride], the z.score.t is given as −0.4684. Regarding `CC[N+](C)(CC)CCOC(=O)C1c2ccccc2Oc2ccccc21` [Methantheline bromide], the z.score.t is recorded as −0.3173. For `CN(C)CCN(Cc1cccs1)c1ccccn1` [Methapyrilene hydrochloride], the z.score.t is recorded as 0.1344. On the same count and under the same terms, with `CC(=O)/N=c1/sc(S(N)(=O)=O)nn1C` [Methazolamide] the figure was −0.3678; with `Cn1cc[nH]c1=S` [Methimazole], −0.05622.
